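Briefly, cells in 96-well plates were exposed to five compound concentrations for 48 h, and endpoints were estimated by linear interpolation. The concentration for full growth arrest is given as TGI.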
How the values were obtained:
Assay in all cases: NCI-60 cell line screen, 48 h
[1] = system: 786-0 renal
[2] = system: A498 renal
[3] = system: A549 NSCLC
[4] = system: ACHN renal
[5] = system: CAKI-1 renal
[6] = system: CCRF-CEM leukemia
[7] = system: COLO 205 colon
[8] = system: DLD-1 colon
[9] = system: DMS 114 small cell lung
[10] = system: DMS 273 small cell lung
[11] = system: EKVX NSCLC
[12] = system: HCC-2998 colon
[13] = system: HCT-116 colon
[14] = system: HCT-15 colon
[15] = system: HOP-18 NSCLC
[16] = system: HOP-62 NSCLC
[17] = system: HOP-92 NSCLC
[18] = system: HT29 colon
[19] = system: IGROV1 ovarian
[20] = system: K-562 leukemia
[21] = system: KM12 colon
[22] = system: KM20L2 colon
[23] = system: LOX IMVI melanoma
[24] = system: LXFL 529 NSCLC
[25] = system: M14 melanoma
[26] = system: M19-MEL melanoma
[27] = system: MALME-3M melanoma
[28] = system: MOLT-4 leukemia
[29] = system: NCI-H226 lung
[30] = system: NCI-H23 lung
[31] = system: NCI-H460 lung
[32] = system: NCI-H522 lung
[33] = system: OVCAR-3 ovarian
[34] = system: OVCAR-4 ovarian
[35] = system: OVCAR-5 ovarian
[36] = system: OVCAR-8 ovarian
[37] = system: RPMI-8226 leukemia
[38] = system: RXF 393 renal
[39] = system: SF-268 CNS
[40] = system: SF-295 CNS
[41] = system: SF-539 CNS
[42] = system: SK-MEL-2 melanoma
[43] = system: SK-MEL-28 melanoma
[44] = system: SK-MEL-5 melanoma
[45] = system: SK-OV-3 ovarian
[46] = system: SN12C renal
[47] = system: SNB-19 CNS
[48] = system: SNB-75 CNS
[49] = system: SNB-78 CNS
[50] = system: SW-620 colon
[51] = system: TK-10 renal
[52] = system: U251 CNS
[53] = system: UACC-257 melanoma
[54] = system: UACC-62 melanoma
[55] = system: UO-31 renal
[56] = system: XF 498 CNS
[57] = system: HL-60(TB) leukemia
[58] = system: SR leukemia

Measured: TGI

NC(=O)CCC(NC(=O)C(F)(F)F)C(=O)O (stereo unspecified)
not listed: [57] | [58]
> 100 µM: all other assays above

O=C(O)Cc1ccc2c(c1O)C(=O)c1c(ccc(CC(=O)O)c1O)C2=O
not listed: [38] | [54] | [55]
> 100 µM: all other assays above
